According to ChEMBL document CHEMBL1201862, “PubChem BioAssay data set” (2004):
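Protocol summary: plate cells (96-well), add compound at 5 concentrations, incubate 48 h, interpolate endpoints linearly. GI50: concentration for 50% inhibition of growth.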 Activity calls are given as the source filed them. Cut-off read from the data, not from the text of the source: active = GI50 up to about 1.1 µM and inactive = higher.

Legend:
Assay in all cases: NCI tumour cell line growth inhibition, 48 h
[1] = tested on: NCI/ADR-RES
[2] = tested on: NCI-H226
[3] = tested on: A498
[4] = tested on: Hs-578T
[5] = tested on: MOLT-4
[6] = tested on: SF-539
[7] = tested on: NCI-H460
[8] = tested on: SW-620
[9] = tested on: MCF7
[10] = tested on: RPMI-8226
[11] = tested on: U-251
[12] = tested on: NCI-H522
[13] = tested on: KM12
[14] = tested on: HOP-62
[15] = tested on: SK-MEL-2
[16] = tested on: CCRF-CEM
[17] = tested on: SK-MEL-28
[18] = tested on: DU-145
[19] = tested on: MDA-N
[20] = tested on: MDA-MB-231
[21] = tested on: UO-31
[22] = tested on: MDA-MB-435
[23] = tested on: T47D
[24] = tested on: OVCAR-3
[25] = tested on: HCC 2998
[26] = tested on: IGROV-1
[27] = tested on: SK-MEL-5
[28] = tested on: HL-60
[29] = tested on: UACC-62
[30] = tested on: UACC-257
[31] = tested on: COLO 205
[32] = tested on: 786-0
[33] = tested on: SNB-19
[34] = tested on: PC-3
[35] = tested on: EKVX
[36] = tested on: Malme-3M
[37] = tested on: HOP-92
[38] = tested on: A549
[39] = tested on: OVCAR-8
[40] = tested on: HCT-116
[41] = tested on: K562
[42] = tested on: OVCAR-5
[43] = tested on: HT-29
[44] = tested on: RXF 393
[45] = tested on: HCT-15
[46] = tested on: SF-268
[47] = tested on: NCI-H23
[48] = tested on: SNB-75
[49] = tested on: M14
[50] = tested on: SR
[51] = tested on: TK-10
[52] = tested on: ACHN
[53] = tested on: SK-OV-3
[54] = tested on: LOX IMVI
[55] = tested on: OVCAR-4
[56] = tested on: CAKI-1
[57] = tested on: SF-295

Q: CN(C)C1COC2Cc3ccccc3C1O2 (stereo not given) was tested. Which GI50 [1] did it give?
A: > 100 µM (inactive)

Q: What about the GI50 [2] of the same compound?
A: > 100 µM (inactive)

Q: And the GI50 [3]?
A: > 100 µM (inactive)

Q: And the GI50 [4]?
A: > 100 µM (inactive)

Q: What about the GI50 [5] of the same compound?
A: > 100 µM (inactive)

Q: And the GI50 [6]?
A: > 100 µM (inactive)

Q: And the GI50 [7]?
A: > 100 µM (inactive)

Q: And the GI50 [8]?
A: > 100 µM (inactive)

Q: What about the GI50 [9] of the same compound?
A: > 100 µM (inactive)

Q: What about the GI50 [10] of the same compound?
A: > 100 µM (inactive)

Q: What about the GI50 [11] of the same compound?
A: > 100 µM (inactive)

Q: What about the GI50 [12] of the same compound?
A: > 100 µM (inactive)

Q: And the GI50 [13]?
A: > 100 µM (inactive)

Q: What about the GI50 [14] of the same compound?
A: > 100 µM (inactive)

Q: What about the GI50 [15] of the same compound?
A: > 100 µM (inactive)

Q: What about the GI50 [16] of the same compound?
A: > 100 µM (inactive)

Q: And the GI50 [17]?
A: > 100 µM (inactive)

Q: What about the GI50 [18] of the same compound?
A: > 100 µM (inactive)

Q: And the GI50 [19]?
A: > 100 µM (inactive)

Q: What about the GI50 [20] of the same compound?
A: > 100 µM (inactive)

Q: And the GI50 [21]?
A: > 100 µM (inactive)

Q: And the GI50 [22]?
A: > 100 µM (inactive)

Q: What about the GI50 [23] of the same compound?
A: > 100 µM (inactive)

Q: What about the GI50 [24] of the same compound?
A: > 100 µM (inactive)

Q: What about the GI50 [25] of the same compound?
A: > 100 µM (inactive)

Q: What about the GI50 [26] of the same compound?
A: > 100 µM (inactive)

Q: And the GI50 [27]?
A: > 100 µM (inactive)

Q: What about the GI50 [28] of the same compound?
A: > 100 µM (inactive)

Q: And the GI50 [29]?
A: > 100 µM (inactive)

Q: And the GI50 [30]?
A: > 100 µM (inactive)

Q: What about the GI50 [31] of the same compound?
A: > 100 µM (inactive)

Q: And the GI50 [32]?
A: > 100 µM (inactive)

Q: And the GI50 [33]?
A: > 100 µM (inactive)

Q: And the GI50 [34]?
A: > 100 µM (inactive)

Q: And the GI50 [35]?
A: > 100 µM (inactive)

Q: And the GI50 [36]?
A: > 100 µM (inactive)

Q: What does the source list for COc1cc(C(=O)N2CCN(C=O)C2=S)cc(OC)c1OC?
A: GI50 [10]: 7.31 µM (inactive); GI50 [21]: 0.0675 µM (active)

Q: Which GI50 [6] does the source give for COc1cc([C@@H]2c3cc4c(cc3[C@@H](Nc3ccc(NC(=O)c5cc([N+](=O)[O-])cn5C)cc3)[C@H]3COC(=O)[C@H]23)OCO4)cc(OC)c1O here?
A: 0.0617 µM (active)

Q: And the GI50 [37]?
A: 0.0796 µM (active)

Q: And the GI50 [8]?
A: 0.162 µM (active)

Q: What about the GI50 [38] of the same compound?
A: 0.0195 µM (active)

Q: What about the GI50 [39] of the same compound?
A: 0.11 µM (active)

Q: What about the GI50 [40] of the same compound?
A: 0.138 µM (active)

Q: What about the GI50 [12] of the same compound?
A: 0.291 µM (active)

Q: And the GI50 [41]?
A: 0.132 µM (active)

Q: What about the GI50 [13] of the same compound?
A: 0.216 µM (active)

Q: And the GI50 [42]?
A: 0.468 µM (active)

Q: And the GI50 [14]?
A: 0.0198 µM (active)

Q: What about the GI50 [15] of the same compound?
A: 0.938 µM (active)

Q: And the GI50 [43]?
A: 0.195 µM (active)

Q: What about the GI50 [44] of the same compound?
A: 0.352 µM (active)

Q: And the GI50 [17]?
A: 0.621 µM (active)

Q: What about the GI50 [18] of the same compound?
A: < 0.013 µM (active)

Q: And the GI50 [45]?
A: 0.307 µM

Q: And the GI50 [21]?
A: 0.231 µM (active)

Q: And the GI50 [23]?
A: 0.0134 µM (active)

Q: And the GI50 [46]?
A: 0.118 µM (active)

Q: What about the GI50 [24] of the same compound?
A: 0.449 µM (active)

Q: And the GI50 [47]?
A: 0.0401 µM (active)

Q: What about the GI50 [25] of the same compound?
A: 0.223 µM (active)

Q: What about the GI50 [26] of the same compound?
A: 0.265 µM (active)

Q: And the GI50 [28]?
A: < 0.0213 µM (active)

Q: And the GI50 [29]?
A: 0.0612 µM (active)

Q: What about the GI50 [48] of the same compound?
A: 0.0614 µM (active)

Q: What about the GI50 [30] of the same compound?
A: 0.658 µM (active)

Q: What about the GI50 [31] of the same compound?
A: 0.219 µM (active)

Q: What about the GI50 [32] of the same compound?
A: 0.0627 µM (active)

Q: What about the GI50 [49] of the same compound?
A: 0.0771 µM (active)

Q: And the GI50 [33]?
A: 0.054 µM (active)

Q: What about the GI50 [50] of the same compound?
A: < 0.01 µM (active)

Q: And the GI50 [34]?
A: 0.143 µM (active)

Q: What about the GI50 [51] of the same compound?
A: 0.479 µM (active)

Q: And the GI50 [35]?
A: 0.658 µM (active)

Q: What about the GI50 [52] of the same compound?
A: < 0.0108 µM (active)

Q: What does the source list for C[C@@H](C(=O)O)c1ccc(-c2ccccc2)c(F)c1 [TARENFLURBIL]?
A: GI50 [1]: > 100 µM (inactive); GI50 [3]: > 100 µM (inactive); GI50 [5]: > 100 µM (inactive); GI50 [7]: > 100 µM (inactive); GI50 [37]: > 100 µM (inactive); GI50 [53]: > 100 µM (inactive); GI50 [54]: > 100 µM (inactive); GI50 [8]: > 100 µM (inactive); GI50 [55]: > 100 µM (inactive); GI50 [10]: > 100 µM (inactive); GI50 [39]: > 100 µM (inactive); GI50 [40]: > 100 µM (inactive); GI50 [56]: > 100 µM (inactive); GI50 [11]: > 100 µM (inactive); GI50 [41]: > 100 µM (inactive); GI50 [13]: > 100 µM (inactive); GI50 [42]: > 100 µM (inactive); GI50 [43]: > 100 µM (inactive); GI50 [16]: > 100 µM (inactive); GI50 [44]: > 100 µM (inactive); GI50 [18]: > 100 µM (inactive); GI50 [20]: > 100 µM (inactive); GI50 [21]: > 71.9 µM (inactive); GI50 [23]: > 100 µM (inactive); GI50 [24]: > 100 µM (inactive); GI50 [47]: > 100 µM (inactive); GI50 [25]: > 100 µM (inactive); GI50 [26]: > 100 µM (inactive); GI50 [27]: > 100 µM (inactive); GI50 [29]: > 100 µM (inactive); GI50 [30]: > 100 µM (inactive); GI50 [31]: > 100 µM (inactive); GI50 [32]: > 100 µM (inactive); GI50 [49]: > 100 µM (inactive); GI50 [33]: > 73.6 µM (inactive); GI50 [50]: > 100 µM (inactive); GI50 [34]: > 100 µM (inactive); GI50 [51]: > 100 µM (inactive); GI50 [57]: > 100 µM (inactive); GI50 [52]: > 100 µM (inactive)
